From US20250026778A1 (TIUMBIO CO., LTD., priority 2021, published 2025)

molecular target: T1, his-galectin-3 (Homo sapiens, UniProt P17931); assay: TR-FRET assay (in vitro galectin-3 binding inhibitory activity test); details: Table 2; compound at 20 μM; 60 nM his-galectin-3, 15 nM biotin-ASF; read-out: % Inhibitory activity (at 20 μM)
T1 construct: purchased Abcam
In short: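 Compound is premixed with his-galectin-3 (60 nM final), then biotin-ASF (15 nM), Tb anti-His antibody (2 nM) and streptavidin-d2 (20 nM) are added. After at least 3.5 hours at RT in HEPES/NaCl buffer with Tween 20 and BSA, TR-FRET is read at 615/665 nm. DMSO serves as the uninhibited control, ASF omission as background.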

T1 sequence (P17931 whole entry): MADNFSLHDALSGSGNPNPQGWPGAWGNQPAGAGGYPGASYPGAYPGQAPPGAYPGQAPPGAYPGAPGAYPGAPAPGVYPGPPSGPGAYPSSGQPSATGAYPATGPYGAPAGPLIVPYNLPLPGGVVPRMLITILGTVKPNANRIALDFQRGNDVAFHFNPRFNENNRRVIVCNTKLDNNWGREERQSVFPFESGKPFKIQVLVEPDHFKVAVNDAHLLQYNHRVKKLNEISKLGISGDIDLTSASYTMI

inhibition at 20 µM | Structure (SMILES)
> 75% | O=C(N[C@@H]1CCO[C@]12O[C@H](CO)[C@H](O)[C@H](n1cc(-c3cc(F)c(F)c(F)c3)nn1)[C@H]2O)c1ccnc2ccc(Br)cc12 [Compound A209, 6-bromo-N-((4R,5S,7R,8R,9S,10R)-8,10-dihydroxy-7-(hydroxymethyl)-9-(4-(3,4,5-trifluorophenyl)-1H-1,2,3-triazol-1-yl)-1,6-dioxaspiro[4.5]decan-4-yl)quinoline-4-carboxamide]
> 75% | O=C(N[C@@H]1CCO[C@]12O[C@H](CO)[C@H](O)[C@H](n1cc(-c3cc(F)c(F)c(F)c3)nn1)[C@H]2OCc1nn[nH]n1)c1ccc(F)c2ccccc12 [Compound A210, N-((4R,5S,7R,8R,9S,10R)-10-((2H-tetrazol-5-yl)methoxy)-8-hydroxy-7-(hydroxymethyl)-9-(4-(3,4,5-trifluorophenyl)-1H-1,2,3-triazol-1-yl)-1,6-dioxaspiro[4.5]decan-4-yl)-4-fluoro-1-naphthamide]
> 75% | O=C(N[C@@H]1CCO[C@]12O[C@H](CO)[C@H](O)[C@H](n1cc(-c3cc(F)c(F)c(F)c3)nn1)[C@H]2O)c1cccc2ccc(Br)cc12 [Compound A211, 7-bromo-N-((4R,5S,7R,8R,9S,10R)-8,10-dihydroxy-7-(hydroxymethyl)-9-(4-(3,4,5-trifluorophenyl)-1H-1,2,3-triazol-1-yl)-1,6-dioxaspiro[4.5]decan-4-yl)-1-naphthamide]
> 75% | O=C(N[C@@H]1CCO[C@]12O[C@H](CO)[C@H](O)[C@H](n1cc(-c3cc(F)c(F)c(F)c3)nn1)[C@H]2O)c1cccc2ncccc12 [Compound A212, N-((4R,5S,7R,8R,9S,10R)-8,10-dihydroxy-7-(hydroxymethyl)-9-(4-(3,4,5-trifluorophenyl)-1H-1,2,3-triazol-1-yl)-1,6-dioxaspiro[4.5]decan-4-yl)quinoline-5-carboxamide]
50 to 75% | O=C(N[C@@H]1CCO[C@]12O[C@H](CO)[C@H](O)[C@H](n1cc(-c3cc(F)c(F)c(F)c3)nn1)[C@H]2O)c1ccc(Br)c2ncccc12 [Compound A213, 8-bromo-N-((4R,5S,7R,8R,9S,10R)-8,10-dihydroxy-7-(hydroxymethyl)-9-(4-(3,4,5-trifluorophenyl)-1H-1,2,3-triazol-1-yl)-1,6-dioxaspiro[4.5]decan-4-yl)quinoline-5-carboxamide]
50 to 75% | CC1CO[C@@]2(C1)O[C@H](CO)[C@H](O)[C@H](n1cc(-c3cc(F)c(F)c(F)c3)nn1)[C@H]2O (stereo partly drawn) [Compound A214, (5S,7R,8R,9S,10R)-7-(hydroxymethyl)-3-methyl-9-(4-(3,4,5-trifluorophenyl)-1H-1,2,3-triazol-1-yl)-1,6-dioxaspiro[4.5]decane-8,10-diol]
> 75% | O=C(Nc1cccc(Cl)c1)N[C@@H]1CCO[C@]12O[C@H](CO)[C@H](O)[C@H](n1cc(-c3cc(F)c(F)c(F)c3)nn1)[C@H]2O [Compound A215, 1-(3-chlorophenyl)-3-((4R,5S,7R,8R,9S,10R)-8,10-dihydroxy-7-(hydroxymethyl)-9-(4-(3,4,5-trifluorophenyl)-1H-1,2,3-triazol-1-yl)-1,6-dioxaspiro[4.5]decan-4-yl)urea]
> 75% | O=C(N[C@@H]1CCO[C@]12O[C@H](CO)[C@H](O)[C@H](n1cc(-c3cc(F)c(F)c(F)c3)nn1)[C@H]2O)c1cccc2ncc(F)cc12 [Compound A216, N-((4R,5S,7R,8R,9S,10R)-8,10-dihydroxy-7-(hydroxymethyl)-9-(4-(3,4,5-trifluorophenyl)-1H-1,2,3-triazol-1-yl)-1,6-dioxaspiro[4.5]decan-4-yl)-3-fluoroquinoline-5-carboxamide]
> 75% | O=C(N[C@@H]1CCO[C@]12O[C@H](CO)[C@H](O)[C@H](n1cc(-c3cc(F)c(F)c(F)c3)nn1)[C@H]2O)c1cccc2ncc(Cl)cc12 [Compound A217, 3-chloro-N-((4R,5S,7R,8R,9S,10R)-8,10-dihydroxy-7-(hydroxymethyl)-9-(4-(3,4,5-trifluorophenyl)-1H-1,2,3-triazol-1-yl)-1,6-dioxaspiro[4.5]decan-4-yl)quinoline-5-carboxamide]

same assay, conditions: Table 3, found values; compound at 20 μM; 60 nM his-galectin-3, 15 nM biotin-ASF; read-out: % Inhibitory activity (at 20 μM)

inhibition at 20 µM | Structure (SMILES)
90.6% | O=C(N[C@@H]1CCO[C@]12O[C@H](CO)[C@H](O)[C@H](n1cc(-c3cc(F)c(F)c(F)c3)nn1)[C@H]2OCc1nn[nH]n1)c1ccc(F)c2ccccc12 [Compound A210, N-((4R,5S,7R,8R,9S,10R)-10-((2H-tetrazol-5-yl)methoxy)-8-hydroxy-7-(hydroxymethyl)-9-(4-(3,4,5-trifluorophenyl)-1H-1,2,3-triazol-1-yl)-1,6-dioxaspiro[4.5]decan-4-yl)-4-fluoro-1-naphthamide]
